# Data published in ChEMBL document CHEMBL5705896 (ACS Chem Biol, 2013).
# Calls of active or inactive are those of the source. The rule behind the calls is not given here.
# Columns and labels:
# [1] = target: Ephrin type-A receptor 2 (Homo sapiens) (UniProt P29317); assay: Inhibition of human cytoplasmic domain N-terminal GST tagged EPHA2 (572 to 976 end residues) expressed in baculovirus expression system using Blk/lyntide as substrate at 10 uM by mobility shift assay relative to control
# [2] = target: Ephrin type-B receptor 4 (Homo sapiens) (UniProt P54760); assay: Inhibition of human cytoplasmic domain N-terminal GST tagged EPHB4 (577 to 987 end residues) expressed in baculovirus expression system using Blk/lyntide as substrate at 10 uM by mobility shift assay relative to control
# Sequence of Ephrin type-B receptor 4 (Homo sapiens) (P54760 whole entry, the tested form may be a part): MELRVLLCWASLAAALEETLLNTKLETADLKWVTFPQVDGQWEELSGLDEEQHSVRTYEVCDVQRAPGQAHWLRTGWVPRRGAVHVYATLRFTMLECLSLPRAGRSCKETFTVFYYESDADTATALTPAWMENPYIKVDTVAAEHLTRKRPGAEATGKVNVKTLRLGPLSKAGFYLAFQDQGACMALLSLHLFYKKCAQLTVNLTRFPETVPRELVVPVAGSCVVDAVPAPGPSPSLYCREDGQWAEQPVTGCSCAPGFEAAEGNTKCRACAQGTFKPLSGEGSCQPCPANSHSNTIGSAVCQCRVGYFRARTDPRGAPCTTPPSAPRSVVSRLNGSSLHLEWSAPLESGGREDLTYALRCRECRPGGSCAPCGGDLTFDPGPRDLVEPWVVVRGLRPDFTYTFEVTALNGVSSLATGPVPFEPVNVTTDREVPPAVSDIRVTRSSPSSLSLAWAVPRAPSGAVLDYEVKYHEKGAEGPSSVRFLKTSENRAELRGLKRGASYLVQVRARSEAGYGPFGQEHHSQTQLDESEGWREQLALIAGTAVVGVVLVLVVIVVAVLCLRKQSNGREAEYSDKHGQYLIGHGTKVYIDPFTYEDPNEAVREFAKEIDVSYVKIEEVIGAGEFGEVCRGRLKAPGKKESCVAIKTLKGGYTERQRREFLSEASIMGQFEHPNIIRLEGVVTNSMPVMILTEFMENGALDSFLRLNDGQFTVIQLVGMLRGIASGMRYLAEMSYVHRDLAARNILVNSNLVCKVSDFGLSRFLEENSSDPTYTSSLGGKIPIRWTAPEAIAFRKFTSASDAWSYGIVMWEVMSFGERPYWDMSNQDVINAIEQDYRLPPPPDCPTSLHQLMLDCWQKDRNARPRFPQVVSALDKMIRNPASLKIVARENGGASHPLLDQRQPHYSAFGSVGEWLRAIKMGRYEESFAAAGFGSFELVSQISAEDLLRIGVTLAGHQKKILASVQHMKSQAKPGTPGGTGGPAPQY
# [3] = target: Insulin-like growth factor 1 receptor (Homo sapiens) (UniProt P08069); assay: Inhibition of human cytoplasmic domain N-terminal GST tagged IGF1R (959 to 1367 end residues) expressed in baculovirus expression system using IRS1 as substrate at 10 uM by mobility shift assay relative to control
# [4] = target: Vascular endothelial growth factor receptor 2 (Homo sapiens) (UniProt P35968); assay: Inhibition of human cytoplasmic domain N-terminal GST tagged KDR (790 to 1356 end residues) expressed in baculovirus expression system using CSKtide as substrate at 10 uM by mobility shift assay relative to control
# [5] = target: Protein-tyrosine kinase 2-beta (Homo sapiens) (UniProt Q14289); assay: Inhibition of full length human N-terminal GST tagged PYK2 (1 to 967 end residues) expressed in baculovirus expression system using Blk/lyntide as substrate at 10 uM by mobility shift assay relative to control
# Sequence of Protein-tyrosine kinase 2-beta (Homo sapiens) (Q14289 whole entry, looked up): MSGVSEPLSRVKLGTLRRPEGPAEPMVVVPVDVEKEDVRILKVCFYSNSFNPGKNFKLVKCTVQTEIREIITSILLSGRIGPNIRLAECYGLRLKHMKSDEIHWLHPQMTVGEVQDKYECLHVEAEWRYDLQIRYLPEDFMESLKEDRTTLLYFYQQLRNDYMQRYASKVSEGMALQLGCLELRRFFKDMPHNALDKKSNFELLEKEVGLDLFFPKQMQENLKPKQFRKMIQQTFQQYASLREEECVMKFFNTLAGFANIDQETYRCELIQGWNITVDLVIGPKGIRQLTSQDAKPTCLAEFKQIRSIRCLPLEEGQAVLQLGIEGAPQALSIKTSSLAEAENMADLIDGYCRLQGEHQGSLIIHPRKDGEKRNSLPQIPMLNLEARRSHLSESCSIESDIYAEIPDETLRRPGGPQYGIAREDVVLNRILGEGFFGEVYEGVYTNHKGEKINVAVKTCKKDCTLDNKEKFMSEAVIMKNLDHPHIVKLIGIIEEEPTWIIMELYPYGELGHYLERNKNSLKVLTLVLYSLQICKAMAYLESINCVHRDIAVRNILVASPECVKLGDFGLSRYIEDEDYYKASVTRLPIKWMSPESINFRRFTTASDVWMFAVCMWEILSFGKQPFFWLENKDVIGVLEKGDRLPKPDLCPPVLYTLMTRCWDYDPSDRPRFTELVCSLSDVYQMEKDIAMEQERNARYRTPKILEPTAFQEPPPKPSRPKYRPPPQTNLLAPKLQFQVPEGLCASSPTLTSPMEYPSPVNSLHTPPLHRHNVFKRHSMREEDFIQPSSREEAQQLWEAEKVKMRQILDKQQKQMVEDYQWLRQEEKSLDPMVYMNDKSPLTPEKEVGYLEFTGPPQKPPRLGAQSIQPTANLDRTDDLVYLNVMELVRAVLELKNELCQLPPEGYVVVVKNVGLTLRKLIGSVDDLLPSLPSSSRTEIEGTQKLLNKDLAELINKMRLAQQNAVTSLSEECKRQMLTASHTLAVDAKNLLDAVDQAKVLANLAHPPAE
# [6] = target: Proto-oncogene tyrosine-protein kinase Src (Homo sapiens) (UniProt P12931); assay: Inhibition of full length human N-terminal GST tagged SRC (1 to 536 end residues) expressed in baculovirus expression system using Srctide as substrate at 10 uM by mobility shift assay relative to control
# Sequence of Proto-oncogene tyrosine-protein kinase Src (Homo sapiens) (P12931 2-536 limits assumed): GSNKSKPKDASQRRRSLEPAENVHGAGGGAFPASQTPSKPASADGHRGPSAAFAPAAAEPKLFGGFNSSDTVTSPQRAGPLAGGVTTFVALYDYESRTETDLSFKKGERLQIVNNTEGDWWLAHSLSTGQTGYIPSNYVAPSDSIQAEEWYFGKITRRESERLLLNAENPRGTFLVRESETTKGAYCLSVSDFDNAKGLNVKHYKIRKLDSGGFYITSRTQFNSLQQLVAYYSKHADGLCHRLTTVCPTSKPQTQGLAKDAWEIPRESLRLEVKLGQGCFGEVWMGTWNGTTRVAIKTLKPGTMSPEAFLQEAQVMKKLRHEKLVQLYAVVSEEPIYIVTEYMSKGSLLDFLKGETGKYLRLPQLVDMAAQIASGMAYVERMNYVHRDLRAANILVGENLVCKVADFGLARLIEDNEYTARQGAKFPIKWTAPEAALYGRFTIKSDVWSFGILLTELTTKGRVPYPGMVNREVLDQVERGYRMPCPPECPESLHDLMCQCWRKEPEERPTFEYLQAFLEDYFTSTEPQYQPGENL
# [7] = target: Angiopoietin-1 receptor (Homo sapiens) (UniProt Q02763); assay: Inhibition of human cytoplasmic domain N-terminal GST tagged TIE2 (771 to 1124 end residues) expressed in baculovirus expression system using Blk/lyntide as substrate at 10 uM by mobility shift assay relative to control
# [8] = target: Dual specificity tyrosine-phosphorylation-regulated kinase 1B (Homo sapiens) (UniProt Q9Y463); assay: Inhibition of full length human N-terminal GST tagged DYRK1B (1 to 629 end residues) expressed in baculovirus expression system using DYRKtide-F as substrate at 10 uM by mobility shift assay relative to control
# [9] = target: MAP kinase-activated protein kinase 2 (Homo sapiens) (UniProt P49137); assay: Inhibition of full length human N-terminal GST tagged MAPKAPK2 1 to 400 end residues) expressed in baculovirus expression system using GS as peptide at 10 uM by mobility shift assay relative to control
# [10] = target: Serine/threonine-protein kinase PAK 2 (Homo sapiens) (UniProt Q13177); assay: Inhibition of full length human N-terminal GST tagged PAK2 (1 to 524 end residues) expressed in baculovirus expression system using DAPK1tide as substrate at 10 uM by mobility shift assay relative to control
# [11] = target: Lymphokine-activated killer T-cell-originated protein kinase (Homo sapiens) (UniProt Q96KB5); assay: Inhibition of full length human N-terminal GST tagged PBK (1 to 322 end residues) expressed in baculovirus expression system using histone H3 as substrate at 10 uM by mobility shift assay relative to control
# Sequence of Lymphokine-activated killer T-cell-originated protein kinase (Homo sapiens) (Q96KB5 whole entry, the tested form may be a part): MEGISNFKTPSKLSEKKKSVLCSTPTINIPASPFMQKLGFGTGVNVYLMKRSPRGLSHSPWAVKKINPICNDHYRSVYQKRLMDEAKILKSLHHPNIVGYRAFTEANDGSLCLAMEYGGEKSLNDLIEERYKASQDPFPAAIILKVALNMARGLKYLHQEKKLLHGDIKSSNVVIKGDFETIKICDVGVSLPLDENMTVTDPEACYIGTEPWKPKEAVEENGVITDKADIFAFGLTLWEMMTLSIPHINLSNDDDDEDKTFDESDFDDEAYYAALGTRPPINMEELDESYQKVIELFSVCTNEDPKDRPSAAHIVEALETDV
# [12] = target: Rho-associated protein kinase 1 (Homo sapiens) (UniProt Q13464); assay: Inhibition of human catalytic domain N-terminal GST tagged ROCK1 (1 to 477 residues) expressed in baculovirus expression system using LIMKtide as substrate at 10 uM by mobility shift assay relative to control
# [13] = target: 5-hydroxytryptamine receptor 1A (Homo sapiens) (UniProt P08908); assay: Inhibition of 5-HT1A receptor (unknown origin) at 10 uM by radioligand binding assay relative to control
# Sequence of 5-hydroxytryptamine receptor 1A (Homo sapiens) (P08908 whole entry): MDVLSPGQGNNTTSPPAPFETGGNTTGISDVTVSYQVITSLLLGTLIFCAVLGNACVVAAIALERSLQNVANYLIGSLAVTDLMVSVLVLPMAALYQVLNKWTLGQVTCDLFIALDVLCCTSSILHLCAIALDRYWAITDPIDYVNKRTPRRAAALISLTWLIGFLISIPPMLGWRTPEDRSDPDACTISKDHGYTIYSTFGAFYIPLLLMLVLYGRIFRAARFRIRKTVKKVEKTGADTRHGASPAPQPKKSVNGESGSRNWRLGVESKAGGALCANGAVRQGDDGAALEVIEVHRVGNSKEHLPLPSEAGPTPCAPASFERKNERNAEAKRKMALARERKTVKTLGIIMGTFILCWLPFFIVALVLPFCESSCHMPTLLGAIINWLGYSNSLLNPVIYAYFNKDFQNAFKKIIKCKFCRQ
# [14] = target: 5-hydroxytryptamine receptor 1D (Homo sapiens) (UniProt P28221); assay: Inhibition of 5-HT1D receptor (unknown origin) at 10 uM by radioligand binding assay relative to control
# Sequence of 5-hydroxytryptamine receptor 1D (Homo sapiens) (P28221 whole entry): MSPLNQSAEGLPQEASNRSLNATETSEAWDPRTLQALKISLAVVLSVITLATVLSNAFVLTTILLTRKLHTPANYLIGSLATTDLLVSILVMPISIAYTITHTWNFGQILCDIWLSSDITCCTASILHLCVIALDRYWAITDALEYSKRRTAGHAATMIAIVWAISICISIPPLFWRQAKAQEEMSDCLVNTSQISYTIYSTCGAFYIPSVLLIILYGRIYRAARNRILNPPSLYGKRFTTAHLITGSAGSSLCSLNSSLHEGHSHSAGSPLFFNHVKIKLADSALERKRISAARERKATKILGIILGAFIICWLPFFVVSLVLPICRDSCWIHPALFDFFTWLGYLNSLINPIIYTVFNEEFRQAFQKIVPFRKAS
# [15] = target: 5-hydroxytryptamine receptor 7 (Homo sapiens) (UniProt P34969); assay: Inhibition of 5-HT7 receptor (unknown origin) at 10 uM by radioligand binding assay relative to control
# [16] = target: Alpha-1D adrenergic receptor (Homo sapiens) (UniProt P25100); assay: Inhibition of Alpha1D receptor (unknown origin) at 10 uM by radioligand binding assay relative to control
# [17] = target: Beta-3 adrenergic receptor (Homo sapiens) (UniProt P13945); assay: Inhibition of Beta3receptor (unknown origin) at 10 uM by radioligand binding assay relative to control
# Sequence of Beta-3 adrenergic receptor (Homo sapiens) (P13945 whole entry, looked up): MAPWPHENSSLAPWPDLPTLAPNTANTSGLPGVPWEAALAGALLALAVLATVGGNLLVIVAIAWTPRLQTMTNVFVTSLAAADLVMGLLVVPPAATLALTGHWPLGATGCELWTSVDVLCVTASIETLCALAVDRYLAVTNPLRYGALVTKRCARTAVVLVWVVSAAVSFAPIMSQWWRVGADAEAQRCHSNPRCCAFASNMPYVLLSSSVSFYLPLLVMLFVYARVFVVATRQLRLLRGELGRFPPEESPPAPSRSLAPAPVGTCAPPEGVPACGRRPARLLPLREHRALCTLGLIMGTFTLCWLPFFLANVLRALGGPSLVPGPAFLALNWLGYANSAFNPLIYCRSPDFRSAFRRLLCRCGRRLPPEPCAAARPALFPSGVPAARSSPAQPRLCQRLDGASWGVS
# [18] = target: Delta-type opioid receptor (Homo sapiens) (UniProt P41143); assay: Inhibition of DOR (unknown origin) at 10 uM by radioligand binding assay relative to control
# Sequence of Delta-type opioid receptor (Homo sapiens) (P41143 whole entry): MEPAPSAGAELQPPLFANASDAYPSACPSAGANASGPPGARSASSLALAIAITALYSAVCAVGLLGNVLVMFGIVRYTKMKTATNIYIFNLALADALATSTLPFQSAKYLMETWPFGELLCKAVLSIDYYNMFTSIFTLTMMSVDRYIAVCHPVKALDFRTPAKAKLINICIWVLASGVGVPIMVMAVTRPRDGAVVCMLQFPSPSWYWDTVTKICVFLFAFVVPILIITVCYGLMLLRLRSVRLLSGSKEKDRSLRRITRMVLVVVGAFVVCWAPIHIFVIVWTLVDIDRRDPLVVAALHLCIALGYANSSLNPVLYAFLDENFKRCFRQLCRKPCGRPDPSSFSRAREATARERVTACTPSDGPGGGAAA
# [19] = target: Kappa-type opioid receptor (Homo sapiens) (UniProt P41145); assay: Inhibition of KOR (unknown origin) at 10 uM by radioligand binding assay relative to control
# Sequence of Kappa-type opioid receptor (Homo sapiens) (P41145 whole entry): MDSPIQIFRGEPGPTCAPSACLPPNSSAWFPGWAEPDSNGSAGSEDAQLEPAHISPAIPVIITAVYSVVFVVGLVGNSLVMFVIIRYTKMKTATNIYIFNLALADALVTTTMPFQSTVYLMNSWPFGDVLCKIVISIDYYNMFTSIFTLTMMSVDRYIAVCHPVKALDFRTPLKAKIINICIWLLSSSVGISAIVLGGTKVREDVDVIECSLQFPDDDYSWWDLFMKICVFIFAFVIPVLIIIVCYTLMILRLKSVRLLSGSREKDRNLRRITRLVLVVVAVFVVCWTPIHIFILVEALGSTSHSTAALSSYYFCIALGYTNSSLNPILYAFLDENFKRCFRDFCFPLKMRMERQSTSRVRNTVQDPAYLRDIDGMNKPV
# [20] = target: Muscarinic acetylcholine receptor M1 (Homo sapiens) (UniProt P11229); assay: Inhibition of M1 receptor (unknown origin) at 10 uM by radioligand binding assay relative to control
# [21] = target: Muscarinic acetylcholine receptor M2 (Homo sapiens) (UniProt P08172); assay: Inhibition of M2 receptor (unknown origin) at 10 uM by radioligand binding assay relative to control
# [22] = target: Muscarinic acetylcholine receptor M3 (Homo sapiens) (UniProt P20309); assay: Inhibition of M3 receptor (unknown origin) at 10 uM by radioligand binding assay relative to control
# [23] = target: Muscarinic acetylcholine receptor M4 (Homo sapiens) (UniProt P08173); assay: Inhibition of M4 receptor (unknown origin) at 10 uM by radioligand binding assay relative to control
# [24] = target: Sodium-dependent serotonin transporter (Homo sapiens) (UniProt P31645); assay: Inhibition of SERT (unknown origin) at 10 uM by radioligand binding assay relative to control
# [25] = target: Sigma intracellular receptor 2 (Homo sapiens, UniProt Q5BJF2); assay: Inhibition of Sigma2 receptor (unknown origin) at 10 uM by radioligand binding assay relative to control
# Sequence of Sigma intracellular receptor 2 (Q5BJF2 whole entry): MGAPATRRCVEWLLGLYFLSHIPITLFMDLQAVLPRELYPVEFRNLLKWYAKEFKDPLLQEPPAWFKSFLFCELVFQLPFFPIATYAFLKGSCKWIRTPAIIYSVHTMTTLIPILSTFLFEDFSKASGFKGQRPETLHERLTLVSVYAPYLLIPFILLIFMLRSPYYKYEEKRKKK
# [26] = target: Histone-lysine N-methyltransferase EHMT2 (Homo sapiens, UniProt Q96KQ7); assay: Inhibition of G9a (unknown origin) using [3H-SAM] as substrate incubated for 1 hr by scintillation proximity assay
# [27] = target: Histone-lysine N-methyltransferase 2A (Homo sapiens, UniProt Q03164); assay: Inhibition of MLL1 (unknown origin) using [3H-SAM] as substrate incubated for 1 hr by scintillation proximity assay
# [28] = test system: DB; assay: Downregulation of EZH2 level in human DB cells at 3000 nM measured after 3 days; assay type: functional, cell-based; settings: time 3.0 day
# [29] = Cmax in Swiss albino mouse at 15 to 150 mg/kg administered as single ip dose measured upto 24 hrs; assay type: ADME, organism-based; settings: in vivo, dose 15-150 mg/kg
# [30] = Toxicity in Swiss albino mouse assessed as adverse effect at 15 to 150 mg/kg administered as single ip dose measured upto 24 hrs; assay type: organism-based; settings: in vivo, dose 15-150 mg/kg
smiles,measurement,setting,value
CCCc1cc(C)[nH]c(=O)c1CNC(=O)c1cc(-c2ccc(N3CCN(C(C)C)CC3)nc2)cc2c1cnn2C(C)C,inhibition,[1],-6%
same,inhibition,[2],-6%
same,inhibition,[3],-7%
same,inhibition,[4],-2%
same,inhibition,[5],-5%
same,inhibition,[6],-1%
same,inhibition,[7],-6%
same,inhibition,[8],-4%
same,inhibition,[9],4%
same,inhibition,[10],4%
same,inhibition,[11],-10%
same,inhibition,[12],5%
same,inhibition,[13],11%
same,inhibition,[14],50%
same,inhibition,[15],-4%
same,inhibition,[16],14%
same,inhibition,[17],10%
same,inhibition,[18],21%
same,inhibition,[19],34%
same,inhibition,[20],19%
same,inhibition,[21],41%
same,inhibition,[22],10%
same,inhibition,[23],21%
same,inhibition,[24],6%
same,inhibition,[25],93%
same,IC50,[26],> 100 µM
same,IC50,[27],> 100 µM
same,Activity,[28],inactive
same,Cmax,[29],9.7 µM
same,Activity,[30],Non-Toxic
